Data published in US8993616B2, “(aza)indole derivative and use thereof for medical purposes” (Kissei Pharmaceutical Co., Ltd., priority 2007, dated 2015).

Biological target: Xanthine oxidase (from bovine milk, Sigma) (Bos taurus (Bovine), UniProt P80457)
Assay: Xanthine oxidase inhibitory activity
Type: biochemical
Conditions: xanthine substrate, 10 minutes at room temperature, absorbance at 290 nm
Method: (1) Preparation of Test Compounds
Test compounds were dissolved in DMSO (Wako) at 40 mM concentration and then diluted to intended concentrations with phosphate-buffered saline (PBS).
(2) Method for Measurement
Xanthine oxidase (from bovine milk, Sigma) was prepared with phosphate-buffered saline (PBS) at 0.02 units/mL, and then the solution was added to 96 well plates at 50 μL/well. In addition, test compounds diluted with PBS were added at 50 μL/well. Xanthine (Wako) at 200 μM prepared with PBS was added at 100 μL/well, and the reaction was conducted for 10 minutes at room temperature. Absorbance at 290 nm was measured using a microplate reader SpectraMax Plus 384 (Molecular device). The absorbance under a condition without xanthine is 0%, and control without test compounds is 100%. Fifty % inhibitory concentration of a test compound (IC50) was calculated (Table 60). Ex. No in the table indicates Example number.

Sequence of Xanthine oxidase (from bovine milk, Sigma) (P80457 whole entry): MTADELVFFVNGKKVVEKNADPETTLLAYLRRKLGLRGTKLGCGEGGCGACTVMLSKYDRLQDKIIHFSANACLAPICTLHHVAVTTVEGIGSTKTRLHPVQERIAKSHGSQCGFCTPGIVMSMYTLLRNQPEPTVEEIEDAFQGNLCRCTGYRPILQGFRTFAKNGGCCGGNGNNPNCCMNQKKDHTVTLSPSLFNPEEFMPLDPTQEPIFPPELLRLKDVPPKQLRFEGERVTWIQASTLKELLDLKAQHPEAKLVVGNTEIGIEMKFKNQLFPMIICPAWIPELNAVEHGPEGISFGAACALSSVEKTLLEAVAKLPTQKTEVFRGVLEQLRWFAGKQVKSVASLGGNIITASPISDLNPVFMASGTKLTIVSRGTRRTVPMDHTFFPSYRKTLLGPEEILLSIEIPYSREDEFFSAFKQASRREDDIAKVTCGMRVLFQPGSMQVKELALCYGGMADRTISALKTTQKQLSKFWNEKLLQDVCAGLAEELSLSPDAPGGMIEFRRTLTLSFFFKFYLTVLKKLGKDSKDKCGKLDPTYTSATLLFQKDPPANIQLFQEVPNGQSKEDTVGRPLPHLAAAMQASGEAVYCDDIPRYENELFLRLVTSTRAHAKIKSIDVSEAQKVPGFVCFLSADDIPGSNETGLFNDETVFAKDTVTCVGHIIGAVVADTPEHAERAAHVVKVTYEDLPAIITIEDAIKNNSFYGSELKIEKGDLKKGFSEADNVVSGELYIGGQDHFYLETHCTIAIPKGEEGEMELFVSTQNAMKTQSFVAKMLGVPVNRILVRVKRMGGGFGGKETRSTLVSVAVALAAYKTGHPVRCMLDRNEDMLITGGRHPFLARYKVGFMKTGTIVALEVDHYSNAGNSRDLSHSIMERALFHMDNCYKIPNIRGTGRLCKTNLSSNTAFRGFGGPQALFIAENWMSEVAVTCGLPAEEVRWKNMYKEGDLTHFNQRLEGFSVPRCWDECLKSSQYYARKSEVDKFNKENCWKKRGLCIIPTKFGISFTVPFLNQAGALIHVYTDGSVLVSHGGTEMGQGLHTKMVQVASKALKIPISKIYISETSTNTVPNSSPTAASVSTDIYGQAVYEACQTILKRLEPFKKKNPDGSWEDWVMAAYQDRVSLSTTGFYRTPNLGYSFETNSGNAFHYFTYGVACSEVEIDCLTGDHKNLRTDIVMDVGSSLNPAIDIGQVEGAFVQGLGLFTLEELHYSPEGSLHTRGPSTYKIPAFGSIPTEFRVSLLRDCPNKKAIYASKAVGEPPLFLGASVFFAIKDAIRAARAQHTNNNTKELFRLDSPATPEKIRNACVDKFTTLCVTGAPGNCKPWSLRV

Compound | IC50 [nM]
N#Cc1cn(-c2ccc(C(=O)O)c(O)c2)c2cc(OCc3ccccc3)ccc12 [Example 5, 4-(6-Benzyloxy-3-cyanoindol-1-yl)-2-hydroxybenzoic acid] | 33.6
N#Cc1cn(-c2ccc(C(=O)O)c(O)c2)c2cc(OCCNC(=O)OCc3ccccc3)ccc12 [Example 8, 4-[6-(2-Benzyloxycarbonylaminoethyloxy)-3-cyanoindol-1-yl]-2-hydroxybenzoic acid] | 41.5
N#Cc1cn(-c2ccc(C(=O)O)c(O)c2)c2cc(OCCN)ccc12 [Example 9, 4-[6-(2-Aminoethyloxy)-3-cyanoindol-1-yl]-2-hydroxybenzoic acid] | 12.5
COc1ccc(-c2ccc3c(c2)c(C#N)cn3-c2ccc(C(=O)O)cc2)cc1 [Example 15, 4-[3-Cyano-5-(4-methoxyphenyl)indol-1-yl]benzoic acid] | 15.5
N#Cc1cn(-c2ccc(C(=O)O)cc2)c2ccc(/C=C/C(=O)O)cc12 [Example 17, 4-[5-((E)-2-Carboxyvinyl)-3-cyanoindol-1-yl]benzoic acid] | 12.1
N#Cc1cn(-c2ccc(C(=O)O)cc2)c2cccc(OCc3ccccc3)c12 [Example 19, 4-(4-Benzyloxy-3-cyanoindol-1-yl)benzoic acid] | 96
N#Cc1cn(-c2ccc(C(=O)O)cc2)c2ccc(OCc3cccs3)cc12 [Example 27, 4-[3-Cyano-5-(thiophen-2-ylmethyloxy)indol-1-yl]benzoic acid] | 14.6
N#Cc1cn(-c2ccc(C(=O)O)cc2)c2ccc(C(=O)O)cc12 [Example 29, 4-(5-Carboxy-3-cyanoindol-1-yl)benzoic acid] | 43.3
N#Cc1cn(-c2ccc(C(=O)O)cc2)c2ccc(CO)cc12 [Example 32, 4-(3-Cyano-5-hydroxymethylindol-1-yl)benzoic acid] | 91.1
CN(C)C(=O)c1ccc2c(c1)c(C#N)cn2-c1ccc(C(=O)O)cc1 [Example 34, 4-(3-Cyano-5-dimethylaminocarbonylindol-1-yl)benzoic acid] | 48.3
N#Cc1cn(-c2ccc(C(=O)O)c(N)c2)c2ccccc12 [Example 42, 2-Amino-4-(3-cyanoindol-1-yl)benzoic acid] | 175
Cc1nc(-n2cc(C#N)c3ccccc32)sc1C(=O)O [Example 47, 2-(3-Cyanoindol-1-yl)-4-methylthiazole-5-carboxylic acid] | 58.6
Cc1ccc2c(c1)c(C#N)cn2-c1ccc(C(=O)O)cn1 [Example 143] | 24.4
Cc1cc2c(cc1OCc1ccccc1)c(C#N)cn2-c1ccc(C(=O)O)cc1 [Example 149] | 38
N#Cc1cn(-c2ccc(C(=O)O)cc2)c2ccc(-c3ccccc3)cc12 [Example 150] | 20.6
N#Cc1cn(-c2ccc(C(=O)O)cc2)c2ccc(OCc3ccccc3)cc12 [Example 151] | 22.4
N#Cc1cn(-c2ccc(C(=O)O)cc2)c2ccc(O)cc12 [Example 152] | 15.8
COCCOc1ccc2c(c1)c(C#N)cn2-c1ccc(C(=O)O)cc1 [Example 153] | 12.2
N#Cc1cn(-c2ccc(C(=O)O)cc2)c2ccc(OCCOc3ccccc3)cc12 [Example 154] | 19
N#Cc1cn(-c2ccc(C(=O)O)cc2)c2cc(-c3ccccc3)ccc12 [Example 155] | 112
COc1ccccc1-c1ccc2c(c1)c(C#N)cn2-c1ccc(C(=O)O)cc1 [Example 157] | 14.1
N#Cc1cn(-c2ccc(C(=O)O)cc2)c2ccc(-c3ccncc3)cc12 [Example 159] | 14.4
CN(Cc1ccccc1)C(=O)c1ccc2c(c1)c(C#N)cn2-c1ccc(C(=O)O)cc1 [Example 161] | 49.8

Compound | IC50 [nM]
COCCNC(=O)c1ccc2c(c1)c(C#N)cn2-c1ccc(C(=O)O)cc1 [Example 162] | 16.5
CN(C)c1ccc(-c2ccc3c(c2)c(C#N)cn3-c2ccc(C(=O)O)cc2)cc1 [Example 165] | 111
N#Cc1cn(-c2ccc(C(=O)O)cc2)c2ccc(OCC(=O)O)cc12 [Example 170] | 20
CCOCCOc1ccc2c(c1)c(C#N)cn2-c1ccc(C(=O)O)cc1 [Example 174] | 24.4
N#Cc1cn(-c2ccc(C(=O)O)cc2)c2ccc(OCCOCc3ccccc3)cc12 [Example 175] | 22.2
N#Cc1cn(-c2ccc(C(=O)O)cc2)c2ccc(OCc3ccsc3)cc12 [Example 176] | 18.3
CN(C)CCCOc1ccc2c(c1)c(C#N)cn2-c1ccc(C(=O)O)cc1 [Example 177] | 16.4
CS(=O)(=O)c1ccc(COc2ccc3c(c2)c(C#N)cn3-c2ccc(C(=O)O)cc2)cc1 [Example 178] | 12.9
CC(C)(C)OC(=O)NCCCOc1ccc2c(c1)c(C#N)cn2-c1ccc(C(=O)O)cc1 [Example 180] | 29
N#Cc1cn(-c2ccc(C(=O)O)cc2)c2ccc(OCCCN)cc12 [Example 181] | 17.2
CS(=O)(=O)Nc1ccc2c(c1)c(C#N)cn2-c1ccc(C(=O)O)cc1 [Example 182] | 16.3
N#Cc1cn(-c2ccc(C(=O)O)cc2)c2cc(CO)ccc12 [Example 184] | 138
COCCOc1ccc2c(C#N)cn(-c3ccc(C(=O)O)cc3)c2c1 [Example 185] | 40.2
N#Cc1cn(-c2ccc(C(=O)O)cc2)c2cc(OCCO)ccc12 [Example 186] | 49.7
Cc1ccc2c(c1)c(C#N)cn2-c1nc(C)c(C(=O)O)s1 [Example 187] | 16.4
Cc1ccc2c(c1)c(C#N)cn2-c1ccc(C(=O)O)c(O)c1 [Example 189] | 13.9
N#Cc1cn(-c2ccc(C(=O)O)c(O)c2)c2cc(C(F)(F)F)ccc12 [Example 195] | 14.5
N#Cc1cn(-c2ccc(C(=O)O)c(O)c2)c2ccc(-c3ccccc3)cc12 [Example 198] | 54.6
N#Cc1cn(-c2ccc(C(=O)O)c(O)c2)c2cc(-c3ccccc3)ccc12 [Example 199] | 49.2
N#Cc1cn(-c2ccc(C(=O)O)c(O)c2)c2ccc(OCc3ccccc3)cc12 [Example 200] | 39.4
N#Cc1cn(-c2ccc(C(=O)O)c(O)c2)c2cccc(OCc3ccccc3)c12 [Example 202] | 61.8
CC(C)COc1ccc2c(c1)c(C#N)cn2-c1ccc(C(=O)O)c(O)c1 [Example 205] | 27.6

Further compounds by falling IC50, results first:

IC50 [nM] | Compound
11.9 | COc1cccc(-c2ccc3c(c2)c(C#N)cn3-c2ccc(C(=O)O)cc2)c1 [Example 156]
11.3 | N#Cc1cn(-c2ccc(C(=O)O)cc2)c2ccc(C(=O)NCc3ccccc3)cc12 [Example 160]
11 | CC(C)Oc1ccc2c(c1)c(C#N)cn2-c1ccc(C(=O)O)c(O)c1 [Example 209]
11 | CCOc1ccc2c(c1)c(C#N)cn2-c1ccc(C(=O)O)c(O)c1 [Example 214]
10.9 | CS(=O)(=O)c1ccc(-c2ccc3c(c2)c(C#N)cn3-c2ccc(C(=O)O)cc2)cc1 [Example 167]
10.9 | N#Cc1cn(-c2ccc(C(=O)O)cc2)c2ccc(OCCO)cc12 [Example 171]
10.5 | COCCOc1ccc2c(C#N)cn(-c3ccc(C(=O)O)c(O)c3)c2c1 [Example 215]
9.5 | N#Cc1cn(-c2ccc(C(=O)O)cc2)c2ccc(-c3cccs3)cc12 [Example 158]
9 | N#Cc1cn(-c2ccc(C(=O)O)c(O)c2)c2ccc(Cl)cc12 [Example 197]
8.3 | CCOCCOc1ccc2c(C#N)cn(-c3ccc(C(=O)O)c(O)c3)c2c1 [Example 219]
8 | N#Cc1cn(-c2ccc(C(=O)O)cc2)c2ccc(OCCCO)cc12 [Example 172]
8 | N#Cc1cn(-c2ccc(C(=O)O)cc2)c2ccc(-c3ccc(O)c(Cl)c3)cc12 [Example 179]
7.5 | CS(=O)(=O)Nc1ccc(-c2ccc3c(c2)c(C#N)cn3-c2ccc(C(=O)O)cc2)cc1 [Example 183]
7.4 | N#Cc1cn(-c2ccc(C(=O)O)c(O)c2)c2cc(OCC(=O)O)ccc12 [Example 216]
7.3 | N#Cc1ccc2c(C#N)cn(-c3ccc(C(=O)O)c(O)c3)c2c1 [Example 207]
7.2 | CC(=O)c1ccc(-c2ccc3c(c2)c(C#N)cn3-c2ccc(C(=O)O)cc2)cc1 [Example 166]
7.2 | N#Cc1ccc2c(c1)c(C#N)cn2-c1ccc(C(=O)O)c(O)c1 [Example 206]
7.2 | N#Cc1cn(-c2ccc(C(=O)O)c(O)c2)c2ccc(OCC(=O)O)cc12 [Example 213]
7.1 | N#Cc1cn(-c2ccc(C(=O)O)c(O)c2)c2cccc(O)c12 [Example 203]
7 | CC(=O)NCCOc1ccc2c(C#N)cn(-c3ccc(C(=O)O)c(O)c3)c2c1 [Example 12, 4-[6-(2-Acetylaminoethyloxy)-3-cyanoindol-1-yl]-2-hydroxybenzoic acid]
7 | N#Cc1cn(-c2ccc(C(=O)O)c(O)c2)c2ccc(OCCO)cc12 [Example 210]
6.7 | COc1ccc2c(c1)c(C#N)cn2-c1ccc(C(=O)O)c(O)c1 [Example 196]
6.2 | COCCOc1ccc2c(c1)c(C#N)cn2-c1ccc(C(=O)O)c(O)c1 [Example 211]
6 | N#Cc1cccc2c1c(C#N)cn2-c1ccc(C(=O)O)c(O)c1 [Example 208]
6 | COc1ccc2c(C#N)cn(-c3ccc(C(=O)O)c(O)c3)c2c1 [Example 217]
6 | N#Cc1cn(-c2ccc(C(=O)O)c(O)c2)c2cc(OCCO)ccc12 [Example 218]
5.5 | N#Cc1cn(-c2ccc(C(=O)O)c(O)c2)c2ccc(O)cc12 [Example 201]
5.4 | N#Cc1cn(-c2ccc(C(=O)O)c(O)c2)c2cc(Cl)ccc12 [Example 190]
5.1 | N#Cc1cn(-c2ccc(C(=O)O)c(O)c2)c2cc(O)ccc12 [Example 212]
